Experimental data from patent US9505735B2, “Compounds for treating infectious diseases” (Whitehead Institute for Biomedical Research, priority 2012, dated 2016).

Legend:
Candida albicans = assay: Antifungal susceptibility testing, wild type and drug-resistant strains; type: cell-based
Experimental: Anti-fungal susceptibility testing of a fluconazole-resistant C. albicans strain under standard conditions. Yeast were incubated at 30° C. for 24 hours with serial dilutions of the indicated compounds. Growth was monitored by OD600 and is expressed as fraction of the growth observed in the absence of compound.
Archives of all strains were maintained in 25% glycerol at −80° C. Standard S. cerevisiae lab strains W303, BY4741, BY4742 and BY4743 were used for experiments. The C. albicans wild type strain in FIG. 1 was CaI4, a standard laboratory strain (Fonzi, et al. (1993) Genetics 134, 717-728). […]
Sensitivity to gepinacin was determined in 96-well, flat bottom microtiter plates using a modification of the NCCLS broth microdilution protocol CLS M27-A3 and RPMI as culture medium. Fungi were inoculated at ˜10^3 cells per ml and incubated for 48 hours at 37° C. after which plates were sealed, shaken and the optical density read at 600 nm (OD600) on a Tecan Safire 2 plate reader. […] Results are expressed as fraction of growth in the absence of compound and the mean and standard deviation are plotted. […] Plates were then visually scored as specified by CLSI document M38-A2 to determine the MIC50 and MIC80.

[1] = system: mammalian cells (293T, mouse embryo fibroblasts); assay: Mammalian cell toxicity testing (Cell Titer-Glo); type: cell-based, human; conditions: 20 μM, 48 hours
Experimental: (B) Anti-fungal susceptibility testing for an evolutionarily diverse group of fungi treated with gepinacin. For A. terreus the MIC50 and MIC80 are plotted. (C) Anti-fungal susceptibility testing for wild type C. albicans and strains resistant to the three major classes of anti-fungals treated with gepinacin. (D) Mammalian cell toxicity testing for proliferating human cells in culture (293T) or quiescent cells (mouse embryo fibroblasts). Cells were treated with gepinacin (20 μM) for 48 hours after which relative viable cell number was measured by standard luciferase assay (Cell Titer-Glo®, Promega).

COc1ccc(NC(=O)COc2cccc(OCC(C)C)c2)cc1 [gepinacin]
growth inhibition (Candida albicans): inhibited the growth
growth inhibition of isolates resistant to the three major classes of antifungals (Candida albicans; fluconazole-, amphotericin B-, caspofungin-resistant strains): inhibited the growth of multiple isolates
cytotoxicity for mammalian cells [1]: Lack of cytotoxicity
